Where “and” joins values, the source holds several entries; their conditions need not be identical. Equal values may be shown once. Read-outs that look alike come from different tables or passages of the source.
Legend:
PGHS-1 [1] = settings: cited from earlier work
wildtype human PGHS-1 [2] = target: T1, wildtype human PGHS-1 (Homo sapiens, UniProt P23219); test: Reversible COX inhibition by NS-398, substrate dependence of COX activity; assay type: biochemical; settings: double reciprocal plot
PGHS-1 L237M variant [3] = target: T2, PGHS-1 L237M variant (Homo sapiens, UniProt P23219, L237M); test: COX kinetic parameters, oxygen uptake vs arachidonate; assay type: biochemical; settings: read-out: COX Km (μM arachidonate), 0.025% Tween 20, 37 °C
wildtype human PGHS-1 [4] = target: T1, wildtype human PGHS-1; test: as above; assay type: biochemical; settings: read-out: COX Km (μM arachidonate), WT, 37 °C, 100 μM HOOH
PGHS-1 V481I variant [5] = target: T3, PGHS-1 V481I variant (Homo sapiens, UniProt P23219, V481I); test: as above; assay type: biochemical; settings: read-out: COX Km (μM arachidonate), 0.025% Tween 20, 37 °C
[6] = target: T4, R108Q variant of human PGHS-1 (Homo sapiens, UniProt P23219, R108Q); test: as above; assay type: biochemical
PGHS-1 L237M variant [7] = target: T2, PGHS-1 L237M variant; test: Timed preincubation with aspirin, decay of surviving COX activity; assay type: biochemical; settings: 37 °C, preincubation with 0.4-5.3 mM aspirin, average ± SD
[8] = hydrolysis in blood; cited from earlier work
PGHS-1 R53H variant = PGHS-1 R53H variant (Homo sapiens, UniProt P23219, R53H); test: Timed preincubation with aspirin, decay of surviving COX activity; assay type: biochemical; settings: 37 °C, preincubation with 0.4-5.3 mM aspirin, average ± SD
[9] = ingestion of 500-650 mg aspirin; cited from earlier work
PGHS-1 [10] = settings: in blood ex vivo; cited from earlier work
wildtype human PGHS-1 [11] = target: T1, wildtype human PGHS-1; test: Timed preincubation with aspirin, decay of surviving COX activity; assay type: biochemical; settings: WT; 37 °C; preincubation with 0.4-5.3 mM aspirin; average ± SD
ovine PGHS-1 = settings: cited from earlier work
[12] = target: T4, R108Q variant of human PGHS-1; test: Timed preincubation with aspirin, decay of surviving COX activity; assay type: biochemical
PGHS-1 V481I variant [13] = target: T3, PGHS-1 V481I variant; test: as above; assay type: biochemical; settings: 37 °C, preincubation with 0.4-5.3 mM aspirin, average ± SD
[14] = target: T4, R108Q variant of human PGHS-1; test: Analysis of Ki and k2 values for aspirin; assay type: biochemical; settings: 20 °C, aspirin potassium salt
COX-1 = settings: cited from earlier work

T4 sequence (P23219 24-599 R108Q): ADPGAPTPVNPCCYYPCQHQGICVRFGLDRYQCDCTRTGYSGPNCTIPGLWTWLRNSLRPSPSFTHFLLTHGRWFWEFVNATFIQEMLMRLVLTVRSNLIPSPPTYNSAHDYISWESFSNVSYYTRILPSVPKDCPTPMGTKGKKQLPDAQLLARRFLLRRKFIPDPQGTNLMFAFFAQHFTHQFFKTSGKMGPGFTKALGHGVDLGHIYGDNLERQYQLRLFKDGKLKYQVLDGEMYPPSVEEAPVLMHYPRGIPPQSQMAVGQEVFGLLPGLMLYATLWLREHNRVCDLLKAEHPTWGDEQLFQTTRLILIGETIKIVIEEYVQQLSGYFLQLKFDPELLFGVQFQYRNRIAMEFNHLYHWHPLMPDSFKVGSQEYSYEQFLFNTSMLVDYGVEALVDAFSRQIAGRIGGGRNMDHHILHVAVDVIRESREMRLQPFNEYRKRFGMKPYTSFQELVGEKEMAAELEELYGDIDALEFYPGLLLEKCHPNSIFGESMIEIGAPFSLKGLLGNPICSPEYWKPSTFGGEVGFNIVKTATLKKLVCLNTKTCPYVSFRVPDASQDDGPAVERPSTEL
T1 sequence (P23219 24-599): as the sequence (P23219 24-599 R108Q) above, with Q85R counted along it
T2 sequence (P23219 24-599 L237M): as the sequence (P23219 24-599 R108Q) above, with Q85R, L214M counted along it
T3 sequence (P23219 24-599 V481I): as the sequence (P23219 24-599 R108Q) above, with Q85R, V458I counted along it
PGHS-1 R53H variant, sequence (P23219 24-599 R53H): as the sequence (P23219 24-599 R108Q) above, with R30H, Q85R counted along it

## CS(=O)(=O)Nc1ccc([N+](=O)[O-])cc1OC1CCCCC1 [NS-398]
PGHS-1 [1]
  Antagonism of PGHS-1 inactivation by aspirin: potent antagonist
PGHS-1 [1]; even at low arachidonate levels
  Effect on COX catalysis: lack effect on COX catalysis
Wildtype human PGHS-1 [2]
  Type of COX inhibition: reversible, competitive inhibitor

## CCCCC/C=C\C/C=C\C/C=C\C/C=C\CCCC(=O)O [arachidonate]
PGHS-1 L237M variant [3]
  Km: 1.8 ± 0.3 µM
Wildtype human PGHS-1 [4]; 0.025% Tween 20
  Km: 1.5 ± 0.4 µM
Wildtype human PGHS-1 [4]; 0.165% Tween 20
  Km: 19.8 ± 3.7 µM
PGHS-1 V481I variant [5]
  Km: 1.8 ± 0.2 µM
[6]
  Elevated arachidonate Km compared to wildtype: 1.9 fold
[6]; 0.165% Tween 20
  Km value above the wildtype value: 50%
[6]; read-out: COX Km (μM arachidonate), 0.025% Tween 20, 37 °C
  Km: 2.8 ± 0.4 µM
[6]; read-out: COX Km (μM arachidonate), 0.165% Tween 20, 37 °C
  Km: 29.7 ± 3.3 µM
[6]; standard conditions
  Increase in Km value vs wildtype: 86%

## CC(=O)Oc1ccccc1C(=O)O [aspirin, acetylsalicylic acid]
PGHS-1 L237M variant [7]
  Aspirin reactivity (relative), k2'/[aspirin] normalized to wildtype value: 0.86 ± 0.05 (n = 9) p = 0.001
[8]
  t1/2 of aspirin in blood: ~ 15 min
PGHS-1 R53H variant
  Aspirin reactivity (relative), k2'/[aspirin] normalized to wildtype value: 0.91 ± 0.07 (n = 9) p = 0.042
[9]
  Peak plasma aspirin level: 30 to 80 µM
  Time of plasma aspirin peak: ~ 30 min
PGHS-1 [10]
  IC50: 0.002 mM
Wildtype human PGHS-1 [11]
  Aspirin reactivity (relative), k2'/[aspirin] normalized to wildtype value: 1.00 ± 0.10 (n = 9)
Ovine PGHS-1; ovine PGHS-1, 30°C
  Aspirin reactivity: 0.3 mM⁻¹ min⁻¹
Ovine PGHS-1; read-out: Ki for aspirin, PGHS-1 (ovine)
  Ki: ~20 mM and 14 to 20 mM
[12]; R108Q vs wildtype
  Lower aspirin reactivity compared to wildtype: 60%
[12]; R108Q, 37 °C
  k2'/aspirin (≈ k2/Ki) as percent of the wildtype value: 40%
[12]; R108Q, 37 °C, preincubation with 0.4-5.3 mM aspirin, average ± SD
  Aspirin reactivity (relative), k2'/[aspirin] normalized to wildtype value: 0.40 ± 0.05 (n = 7) p = 0.0001
PGHS-1 V481I variant [13]
  Aspirin reactivity (relative), k2'/[aspirin] normalized to wildtype value: 0.82 ± 0.10 (n = 9) p = 0.001
[14]
  Decrease in k2 (rate constant for acetyl group transfer) vs wildtype: 30%
  Increase in Ki for aspirin vs wildtype: 70%
  k2/Ki as percent of that for wildtype: 42%

## O=C(O)c1ccccc1O [salicylic acid]
COX-1
  COX-1 inhibition: negligible COX-1 inhibitor
